Measurements: patent US20210087222A1, “COMPOUNDS FOR TREATING NEURODEGENERATIVE DISORDERS” (ETHNODYNE, priority 2017, published 2021)

Key:
[1] = system: OPC (precursor cells of oligodendrocytes) in primary cocultures of central neurons and oligodendrocytes; experiment: In vitro MS (myelination) model, OPC number (A2B5 positive cells) at day 12; format: cell-based, rat; conditions: 12 days treatment
Description: (§1) A reproducible in vitro myelination model based on primary cocultures of central neurons and oligodendrocytes culturing in 96-well plate is used and adapted to high throughput screening.
(§2) Neurons/oligodendrocytes were cultured as previously described by Charles et al., 2000. PNAS 97 7585-7590.
Briefly, pregnant Wistar female rats of 17 days gestation were killed by cervical dislocation (Janvier Labs, France) and the foetuses removed from the uterus. The forebrains were removed and placed in ice-cold medium of Leibovitz (L15; Pan Biotech, Germany) containing 2% of Penicillin-Streptomycin (Batch 1451013, PanBiotech) and 1% of bovine serum albumin (BSA) (Batch K180713, Pan Biotech). Cortexes were dissociated by trypsinisation for 20 min at 37° C., with Trypsin EDTA 1X (Batch 7310713, PanBiotech). The reaction was stopped by the addition of Dulbecco's modified Eagle's medium (DMEM) (Batch 9710913, PanBiotech) containing DNAase I grade II at 0.1 mg/mL (Batch H131108, PanBiotech) and 10% of foetal calf serum (Batch 41Q7218K, Invitrogen, France). […]
(§3) The immunolabeled cultures were automatically examined with ImageXpress (Molecular Devices) equipped with a LED at ×20 magnification. […] Number of A2B5 positive cells and number of MAG positive cells were automatically analyzed by using Custom module editor (Molecular Devices). […] All values were expressed as mean+/−SEM (s.e.mean) of the 6 wells. […]

[2] = system: primary rat motor neurons injured with glutamate; experiment: Primary motor neuron culture survival after glutamate injury (in vitro ALS model); format: cell-based
Description: The aim of this study was to study the effect of CR591 on primary motor neuron culture from rat spinal cord (SC) injured by glutamate exposure (a well validated in vitro ALS model and model of motor neuron diseases).
Rat SC motor neurons were cultured as described by Martinou et al., Neuron. 1992 April; 8(4):737-44 and Wang et al., Hum Mol Genet. 2013 Dec. 1; 22(23):4706-19. Briefly, pregnant female rats (Wistar, Janvier labs) of 14 days gestation were killed by cervical dislocation. […] Cells were then centrifuged at 180 g for 10 min at +4° C. on a layer of BSA (3.5%) in L15 medium. […] The medium was changed every day.
The following conditions were assessed: • Control • + glutamate (5 μM 20 mn then 48 h) • + glutamate (5 μM 20 mn then 48 h)+CR591 1 pmol/L • + glutamate (5 μM 20 mn then 48 h)+CR591 10 pmol/L • + glutamate (5 μM 20 mn then 48 h)+CR591 100 pmol/L • + glutamate (5 μM 20 mn then 48 h)+CR591 1 nmol/L • + glutamate (5 μM 20 mn then 48 h)+CR591 10 nmol/L • + glutamate (5 μM 20 mn then 48 h)+CR591 100 nmol/L • + glutamate (5 μM 20 mn then 48 h)+CR591 1 μmol/L • + glutamate (5 μM 20 mn then 48 h)+CR591 10 μmol/L […]
For each condition, 6 wells were assessed, 30 pictures per well were taken using ImageXpress (Molecular Devices) with 20× magnification, to assess motor neuron survival (MAP-2). […]

[3] = system: human HCT-116 colorectal carcinoma; experiment: Cytotoxicity test, MTS cell growth inhibition assay; format: cell-based; conditions: HCT-116 cells, 72 h incubation, 8 concentrations, FIG. 1b
Description: (§4) Human MRC-5 cell line derived from normal lung tissue and human HCT-116 colorectal carcinoma were obtained from the American Type Culture Collection (ATCC, Rockville, Md.). Primary Human Umbilical Vein Endothelial Cells (HUVEC) isolated from the vein of the umbilical cord were obtained from Promocell (Germany). Cell lines were cultured according to the supplier's instructions. Human HCT-116 cells were grown in Gibco McCoy's 5A supplemented with 10% fetal calf serum (FCS) and 1% glutamine. Human MRC-5 cells were grown in DMEM supplemented with 10% fetal calf serum (FCS) and 1% glutamine. HUVECs were grown in Endothelial Cell Growth Medium 2 which is low-serum (2% V/V) media optimized for the cultivation of endothelial cells from large blood vessels.
(§5) Cells were counted using a Vi-cell XR (Beckman Coulter) and their viability assessed by 0.25% trypan blue dye exclusion. They were tested for the presence of mycoplasma before experiments with the Mycoplasma PCR Detection Kit (Applied Biological Materials Inc., Canada) in accordance with the manufacturer instructions and only mycoplasma-free cells were used for further investigations.
(§6) Cell lines were maintained at 37° C. in a humidified atmosphere containing 5% CO2. Cell growth inhibition was determined by an MTS assay according to the manufacturer's instructions (Promega, Madison, Wis., USA). […] After 24 h of culture, the cells were treated with the compound CR591 of example 1 at 8 different final concentrations. Each concentration was obtained from serial dilutions in culture medium starting from the stock solution. Control cells were treated with the vehicle. Experiments were performed in triplicate.
(§7) After 72 h of incubation, 20 μL of CellTiter 96® AQueous One Solution Reagent was added for 2 h before recording absorbance 490 nm with a spectrophotometric plate reader. The dose-response curves were plotted with Graph Prism software and the IC50 values were calculated using the Graph Prism software from polynomial curves (four or five-parameter logistic equations).

[4] = system: Primary Human Umbilical Vein Endothelial Cells (HUVEC); experiment: as above; format: cell-based; conditions: 72 h incubation, 8 concentrations, FIG. 1c
Description: as §4, §5, §6, §7

[5] = system: Human MRC-5 cell line derived from normal lung tissue; experiment: as above; format: cell-based; conditions: MRC-5 cells, 72 h incubation, 8 concentrations, FIG. 1a
Description: as §4, §5, §6, §7

[6] = system: MAG positive cells (OL) in primary cocultures of central neurons and oligodendrocytes; experiment: In vitro MS (myelination) model, MAG evaluation at day 18; format: cell-based, rat; conditions: 18 days of treatment, bell shape curve
Description: as §1, §2
Briefly, pregnant Wistar female rats of 17 days gestation were killed by cervical dislocation (Janvier Labs, France) and the foetuses removed from the uterus. The forebrains were removed and placed in ice-cold medium of Leibovitz (L15; Pan Biotech, Germany) containing 2% of Penicillin-Streptomycin (Batch 1451013, PanBiotech) and 1% of bovine serum albumin (BSA) (Batch K180713, Pan Biotech). Cortexes were dissociated by trypsinisation for 20 min at 37° C., with Trypsin EDTA 1X (Batch 7310713, PanBiotech). The reaction was stopped by the addition of Dulbecco's modified Eagle's medium (DMEM) (Batch 9710913, PanBiotech) containing DNAase I grade II at 0.1 mg/mL (Batch H131108, PanBiotech) and 10% of foetal calf serum (Batch 41Q7218K, Invitrogen, France). Cells were then mechanically dissociated by 3 passages through a 10 mL pipette. Cells were centrifuged at 180×g for 10 min at 4° C. temperature on a layer of BSA (3.5%) in L15 medium. The supernatant was discarded and cells of the pellet were re-suspended in DMEM containing 10% of FCS. […] The supernatant was discarded and cells of pellet were re-suspended in a culture medium consisting of Neurobasal (Batch 1625353, Invitrogen) supplemented with 2% of B27 (Batch 1618508, Invitrogen), 2 mM of L-glutamine (Batch 6620314, PanBiotech), 2% of PS solution, 1% of foetal calf serum (FCS) and 10 ng/mL of platelet-derived growth factor (PDGF-AA) (Batch H131205, PanBiotech). […]
as §3

Structure (SMILES) | OPC number (A2B5 positive cells) ([1]; 1 pmol/L to 10 μmol/L, FIG. 2) | total number of OPCs at the highest doses ([1]; highest doses, inhibition of proliferation or toxic effect) | protective effect of motor neuron (survival, MAP-2) ([2]; added 1 h before glutamate (5 μM 20 min, then 48 h), between 1 nM and 10 nM, FIG. 4) | toxicity (cell growth inhibition) [3] | toxicity (cell growth inhibition) [4] | toxicity (cell growth inhibition) [5] | concentration of maximal effect on MAG positive cells / myelination [6] [nM] | number of MAG positive cells ([6]; FIG. 3a) | myelination of neurons by OL (area of MAG expression) ([6]; FIG. 3b) | motor neuron death ([2]; glutamate 5 μM for 20 min, read 48 h later, versus control = 100%) [%]
CC1=C(CO)C(=O)O[C@@H]([C@@H](C)[C@H]2CCC3C4C[C@H](SC[C@H](N)C(=O)O)[C@]5(O)[C@@H](O)C=CC(=O)[C@]5(C)C4CC[C@@]32C)C1 (stereo partly shown) [CR591] | did not show any significant increase | decrease of the total number of OPCs was observed | moderate and significant protective effect | does not show any toxicity | does not show any toxicity | does not show any toxicity | 1 | able to increase the number of MAG positive cells | significantly improved the myelination of neurons by OL | 
N[C@@H](CCC(=O)O)C(=O)O [Glutamate, glutamate, reference compound] |  |  |  |  |  |  |  |  |  | > 30
